From ChEMBL document CHEMBL5113512, “β-Nitrostyrene derivatives as broad range potential antifungal agents targeting fungal cell wall” (2022)
In brackets after ≈: the same amount, converted by molar mass. Activity calls are given as the source filed them. The rule behind the calls is not given here.

Key:
[1] = system: Candida; assay: Downregulation of GIT3 gene expression in Candida cells; assay type: functional, cell-based
[2] = system: Candida albicans; assay: Downregulation of CAS5 gene expression in Candida albicans ATCC 24433 by qRT-PCR analysis; assay type: functional
[3] = system: Candida; assay: Upregulation of CPA2 gene expression in Candida cells; assay type: functional, cell-based
[4] = system: Candida albicans; assay: Synergistic antifungal activity against Candida albicans ATCC 24433 assessed as fractional inhibitory concentration index incubated for 48 hrs in presence of Congo red by checker board assay; assay type: functional
[5] = system: Candida; assay: Upregulation of ARG5 gene expression in Candida cells; assay type: functional, cell-based
[6] = system: Candida albicans; assay: Upregulation of NAG4 gene expression in Candida albicans ATCC 24433 by qRT-PCR analysis; assay type: functional
[7] = system: Candida albicans; assay: Induction of ROS generation in Candida albicans ATCC 24433 at sub-inhibitory concentration incubated for 1 hr by DCFDA staining-based flow cytometric analysis; assay type: functional, organism-based
[8] = system: Candida parapsilosis; assay: Synergistic antifungal activity against Candida parapsilosis ATCC 90018 assessed as fractional inhibitory concentration index incubated for 48 hrs in presence of Calcoflour White by checker board assay; assay type: functional
[9] = system: Candida; assay: Upregulation of PLB5 gene expression in Candida cells; assay type: functional, cell-based
[10] = system: Candida albicans; assay: Downregulation of ZCF19 gene expression in Candida albicans ATCC 24433 by qRT-PCR analysis; assay type: functional
[11] = system: Cell membrane; assay: Disruption of membrane integrity in Candida albicans ATCC 24433 assessed as cell surface perturbations measured after 3 hrs by SEM analysis
[12] = system: Candida albicans; assay: Synergistic antifungal activity against Candida albicans SN152 harboring CAS5 mutant assessed as Caspofungin MIC incubated for 48 hrs by checker board assay; assay type: functional
[13] = system: Candida parapsilosis; assay: Antifungal activity against Candida parapsilosis ATCC 90018 assessed as inhibition of fungal growth by broth microdilution method; assay type: functional; conditions: Lodderomyces parapsilosis
[14] = system: [Candida] auris; assay: Synergistic antifungal activity against Candida auris CBS10913 assessed as inhibition of fungal growth incubated for 48 hrs in presence of Calcoflour White by checker board assay; assay type: functional; conditions: Candidozyma auris
[15] = system: Cell membrane; assay: Disruption of membrane integrity in Candida auris CBS10913 assessed as cell surface perturbations measured after 3 hrs by SEM analysis; assay type: subcellular; conditions: Candidozyma auris
[16] = system: Candidozyma auris; assay: Upregulation of CaPHO15 gene expression in Candida auris CBS10913 assessed as increase in glycerol content at sub-inhibitory concentration incubated for 2 hrs; assay type: functional
[17] = system: Candida albicans; assay: Inhibition of drug efflux in Candida albicans ATCC 24433 overexpressing ADCaMDR1-GF assessed as […] in nile red efflux incubated for 30 mins by flow cytometry; assay type: functional
[18] = system: Candida albicans; assay: Synergistic antifungal activity against Candida albicans ATCC 24433 assessed as inhibition of fungal growth incubated for 48 hrs in presence of SDS by checker board assay; assay type: functional
[19] = system: [Candida] auris; assay: Synergistic antifungal activity against Candida auris CBS10913 assessed as inhibition of fungal growth incubated for 48 hrs in presence of Congo red by checker board assay; assay type: functional; conditions: Candidozyma auris
[20] = system: [Candida] auris; assay: Induction of ROS generation in Candida auris CBS10913 at sub-inhibitory concentration incubated for 1 hr by DCFDA staining-based flow cytometric analysis; assay type: functional, organism-based; conditions: Candidozyma auris
[21] = system: Cell membrane; assay: Disruption of membrane integrity in Candida albicans ATCC 24433 assessed as cell deformation measured after 30 mins by SEM analysis; assay type: subcellular
[22] = system: Candida; assay: Downregulation of ACF2 gene expression in Candida cells; assay type: functional, cell-based
[23] = system: [Candida] auris; assay: Synergistic antifungal activity against Candida auris CBS10913 assessed as fractional inhibitory concentration index incubated for 48 hrs in presence of Calcoflour White by checker board assay; assay type: functional, Candidozyma auris
[24] = system: Candida parapsilosis; assay: Synergistic antifungal activity against Candida parapsilosis ATCC 90018 assessed as inhibition of fungal growth incubated for 48 hrs in presence of Congo red by checker board assay; assay type: functional; conditions: Lodderomyces parapsilosis
[25] = system: Candida; assay: Downregulation of CCW14 gene expression in Candida cells; assay type: functional, cell-based
[26] = system: [Candida] auris; assay: Antifungal activity against Candida auris 118 assessed as inhibition of fungal growth by broth microdilution method; assay type: functional; conditions: Candidozyma auris
[27] = system: Candida; assay: Downregulation of RBT1 gene expression in Candida cells; assay type: functional, cell-based
[28] = system: Candida; assay: Downregulation of BMT5 gene expression in Candida cells; assay type: functional, cell-based
[29] = system: Candida; assay: Downregulation of CLN3 gene expression in Candida cells; assay type: functional, cell-based
[30] = system: Candida albicans; assay: Antifungal activity against Candida albicans ATCC 24433 overexpressing transporter protein GU5 assessed as inhibition of fungal growth by broth microdilution method; assay type: functional
[31] = system: Candida albicans; assay: Synergistic antifungal activity against Candida albicans SN152 harboring CAS5 mutant assessed as inhibition of fungal growth incubated for 48 hrs in presence of Caspofungin by checker board assay; assay type: functional
[32] = system: Candida tropicalis; assay: Antifungal activity against Candida tropicalis ATCC 750 assessed as inhibition of fungal growth by broth microdilution method; assay type: functional
[33] = system: Candida albicans; assay: Synergistic antifungal activity against wild type Candida albicans SN152 assessed as fluconazole MIC incubated for 48 hrs by checker board assay; assay type: functional

`O=[N+]([O-])/C=C/c1ccc(O)cc1` was tested, and the Activity [1] was “Active”, the Activity [2] was “Active” and the Activity [3] was “Active”. The “fractional inhibitory concentration index (FICI)” value [4] was 0.375, the Activity [5] was “Active” and the Activity [6] was “Active”. For the same compound, the Activity [7] was “Active”, the “fractional inhibitory concentration index (FICI)” value [8] was 0.5 and the Activity [9] was “Active”. For the same compound, the Activity [10] was “Active”, the Activity [11] was “Active” and the MIC [12] was 7.8 ng/mL. The MIC80 [13] was 8 µg/mL (≈ 48.4 µM), the MIC [14] was 0.25 µg/mL and the Activity [15] was “Active”. For the same compound, the Activity [16] was “Active”, the inhibition [17] was “Active” and the MIC [18] was 1 µg/mL. The MIC [19] was 0.125 µg/mL, the Activity [20] was “Active” and the Activity [21] was “Active”. For the same compound, the Activity [22] was “Active”, the “fractional inhibitory concentration index (FICI)” value [23] was 0.625 and the MIC [24] was 0.0312 µg/mL. The Activity [25] was “Active”, the MIC80 [26] was 4 µg/mL (≈ 24.2 µM) and the Activity [27] was “Active”. The Activity [28] was “Active”, the Activity [29] was “Active” and the MIC80 [30] was 4 µg/mL (≈ 24.2 µM). It also gave an MIC [31] of 1.9 ng/mL, an MIC80 [32] of 4 µg/mL (≈ 24.2 µM) and an MIC [33] of 0.25 µg/mL.
